Assay results as given in patent US20050267182A1, “Urea derivatives as FLT-3 modulators” (Ambit Biosciences Corporation, priority 2003, published 2005).

Key:
MV4,11 cells = test: FLT3 assay using MV4,11 cells (cellular proliferation, MTS); type: cell-based, human; conditions: cell assay code CS0001
Method: The ability of FLT3 kinase inhibitors to inhibit cellular proliferation was also examined. MV4:11 was a cell line derived from a patient with acute myelogenous leukemia.
FLT3 Assay Using MV4,11 Cells
MV4,11 cells were grown in an incubator @ 37° C. in 5% CO2 in Medium 2 (RPMI, 10% FBS, 4 mM glutamine, Penn/Strep). The cells were counted daily and the cell density was kept between 1e5 and 8e5 cells/ml.
Day One: Enough cells were harvested for experiments to be conducted in 50 ml conical tubes. The harvested cells were spun at 500 g for 5 min at 4° C., the supernatant was then aspirated and the cells were resuspended in the starting volume of 1×PBS. The cells were again spun at 500 g for 5 min at 4° C. and the supernatant again aspirated. The cells were then resuspended in medium 3 (DMEM w/ glut, 10% FBS, Penn/Strep) to a density of 4e5 cells/ml and incubated (37° C. in 5% CO2 O/N.
Day Two: The cells were counted and enough medium 3 was added to decrease density to 2e5 cells/ml. 50 ul (10,000 cells) was aliquoted into each well of a 96 well optical plate using multichannel pipetman. The compound plate was then set up by aliquoting 3 μl of negative control (DMSO) into column 1 of a 96 well 300 ul polypropylene plate, aliquoting 3 μt of positive control (10 mM AB20121) into column 12 of plate, and aliquoting 3 μl of appropriate compounds from serial dilutions into columns 2-11. To each well, 150 μl of Medium 3 was added and 50 μl of compound/medium mixture from compound plate into rows of optical plate in duplicate. The cells were then incubated @ 37° C. in 5% CO2 for 3 days.
Day Five: MTS was thawed in a H2O bath. 20 μl of MTS was added to each well of optical plate and the cells were incubated (37° C. in 5% CO2 for 2 hours. The plate was then placed on a plate shaker for 30 seconds on high speed.

FLT3 = molecular target: T1, FLT3 (Homo sapiens, UniProt P36888); test: Binding constant (Kd) measurement, phage-displayed kinase competition binding assay; conditions: for Binding Assay: FLT3(JMminus): FLT3(JMminus) construct
T1 construct: FLT3(DKIN); made in house
T1 sequence (P36888 610-943 limits assumed): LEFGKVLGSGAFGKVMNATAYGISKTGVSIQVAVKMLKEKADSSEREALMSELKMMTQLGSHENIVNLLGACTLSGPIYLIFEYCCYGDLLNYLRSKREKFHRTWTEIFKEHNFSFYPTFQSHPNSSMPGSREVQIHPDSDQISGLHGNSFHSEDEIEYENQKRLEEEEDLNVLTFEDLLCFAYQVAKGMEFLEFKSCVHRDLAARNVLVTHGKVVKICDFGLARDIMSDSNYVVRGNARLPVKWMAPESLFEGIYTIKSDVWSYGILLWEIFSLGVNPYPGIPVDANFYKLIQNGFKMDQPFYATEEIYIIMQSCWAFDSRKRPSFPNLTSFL
Source text: Binding Constant (Kd) Measurements for Small-Molecule-Kinase Interactions
The term “ND” represents non-determined values.

| SMILES | Cell Assay: CS0001:IC50 (MV4,11 cells) | Binding Assay: FLT3(DKIN) (FLT3; FLT3(DKIN) construct) | Kd (FLT3; FLT3(DKIN) construct) | Binding Assay: FLT3(JMminus) (FLT3) | IC50 (MV4,11 cells; Homo sapiens, MV4-11) |
| --- | --- | --- | --- | --- | --- |
| CC(C)(C)c1cc(NC(=O)Nc2ccc(OCc3c(F)cccc3F)cc2)no1 [Compound G21] | + + + + | + + + + |  |  |  |
| CC(C)CCOC(=O)c1nnsc1NC(=O)Nc1ccc(Br)cc1 [Compound Z36] | + + |  | > 10 µM |  |  |
| Cc1ccc(COc2ccc(NC(=O)Nc3cc(C(C)(C)C)on3)cc2)cc1 [Compound G15] | + + + + | + + + + |  |  |  |
| Cc1cc(C)c(C(=O)Nc2ccc(NC(=O)Nc3cc(C(C)(C)C)on3)cc2)c(C)c1 [Compound N31] | + + | + + + |  |  |  |
| Cc1nc(C(=O)Nc2ccc(NC(=O)Nc3cc(C(C)(C)C)on3)cc2)c(C(F)(F)F)o1 [Compound N55] | + + + | + + + + |  |  |  |
| CC(C)(C)c1cc(NC(=O)Nc2ccc(NC(=O)c3c(F)cccc3F)cc2)no1 [Compound N37] | + + | + + + |  |  |  |
| Cc1[nH]c(C(=O)Nc2ccc(NC(=O)Nc3cc(C(C)(C)C)on3)cc2)c(C)c1CCC(=O)O [Compound N39] | + + | + + + + |  |  |  |
| CCOC(=O)CCc1c(C)[nH]c(C(=O)Nc2ccc(NC(=O)Nc3cc(C(C)(C)C)on3)cc2)c1C [Compound N83] | + + + | + + + + |  |  |  |
| COc1cc(NC(=O)CCC(=O)N2CCNC(=O)CC2)ccc1NC(=O)Nc1cc(C(C)(C)C)on1 [Compound N172] | + + |  |  | + + + |  |
| COc1nc(C)cc(C)c1C(=O)Nc1ccc(NC(=O)Nc2cc(C(C)(C)C)on2)cc1 [Compound N22] | + + + | + + + + |  |  |  |
| CC(C)(C)OC(=O)Nc1ccc(NC(=O)Nc2cc(C(C)(C)C)on2)cc1 [Compound N101] | + + + | + + + + |  |  |  |
| CC(C)(C)c1cc(NC(=O)Nc2ccc(OCCc3ccccn3)cc2)no1 [Compound G27] | + + + | + + + + |  |  |  |
| CC(C)(C)c1cc(NC(=O)Nc2ccc(NC(=O)c3cc(O)c4cccc(O)c4n3)cc2)no1 [Compound N176] |  |  |  | + + + | > 10 µM |
| CC(C)(C)c1cc(NC(=O)Nc2ccc(NC(=O)C3=Cc4cc(F)cc(S(C)(=O)=O)c4C3)cc2)no1 [Compound N58] | + + + | + + + |  |  |  |
| CC(C)(C)c1cc(NC(=O)Nc2ccc(NC(=O)c3cnc4ccccc4n3)cc2)no1 [Compound N149] | + + | + + + |  |  |  |
| CC(C)(C)c1cc(NC(=O)Nc2ccc(OCCN3CCSCC3)cc2)no1 [Compound G53] | + + | + + + |  |  |  |
| CC(C)(C)c1cc(NC(=O)Nc2ccc(NC(=O)c3cc(Cl)cc(Cl)c3)cc2)no1 [Compound N29] | + + + | + + + |  |  |  |
| CC(C)c1nnsc1C(=O)Nc1ccc(NC(=O)Nc2cc(C(C)(C)C)on2)cc1 [Compound N182] | + + |  |  | + + + |  |

| SMILES | Cell Assay: CS0001:IC50 (MV4,11 cells) | Binding Assay: FLT3(DKIN) (FLT3; FLT3(DKIN) construct) | Kd (FLT3; FLT3(DKIN) construct) | Binding Assay: FLT3(JMminus) (FLT3) | IC50 (MV4,11 cells; Homo sapiens, MV4-11) |
| --- | --- | --- | --- | --- | --- |
| CC(C)(C)c1cc(NC(=O)Nc2ccc(NC(=O)c3ccc4cccnc4n3)cc2)no1 [Compound N144] | + + + | + + + + |  |  |  |
| CC(C)(C)c1cc(NC(=O)Nc2ccc(NC(=O)c3cnn(-c4cccc(Cl)c4)c3Br)cc2)no1 [Compound N45] | + + + | + + + + |  |  |  |
| CC(C)(C)c1noc(-c2ccc(NC(=S)Nc3cc(C(C)(C)C)on3)cc2)n1 [Compound P6] | + + + | + + |  |  |  |
| CC1CCCN(CCOc2ccc(NC(=O)Nc3cc(C(C)(C)C)on3)cc2)C1 (stereo not shown) [Compound G44] | + + | + + |  |  |  |
| CC(C)(C)c1cc(NC(=O)Nc2ccc(NC(=O)Cc3noc4ccccc34)cc2)no1 [Compound N80] | + + + |  |  | + + + |  |
| CC(C)(C)c1cc(NC(=O)Nc2ccc(NC(=O)c3ccnc4ccccc34)cc2)no1 [Compound N141] | + + + | + + + + |  |  |  |
| CC(C)(C)c1cc(NC(=O)Nc2ccc(OCc3ccc(F)cc3Cl)cc2)no1 [Compound G18] | + + + | + + + + |  |  |  |
| CC(C)(C)c1cc(NC(=O)Nc2ccc(C(=O)Nc3ccc(F)cc3F)cc2)no1 [Compound N153] | + + + | + + + + |  |  |  |
| COc1cc(OC)nc(Oc2ccccc2C(=O)Nc2ccc(NC(=O)Nc3cc(C(C)(C)C)on3)cc2)n1 [Compound N70] | + + |  |  | + + + |  |
| CNC(=O)c1ccc(NC(=O)Nc2cc(C(C)(C)C)on2)cc1 [Compound N85] | + + + | + + + + |  |  |  |
| CC(C)(C)c1csc(NC(=O)Nc2ccc(OCc3ccccc3)cc2)n1 [Compound G49] | + + + | + + |  |  |  |
| O=C(c1cc2ccccc2[nH]1)c1cc2cc(O)ccc2[nH]1 | + + + | + + + + |  |  |  |
| CC1CN(CCOc2ccc(NC(=O)Nc3cc(C(C)(C)C)on3)cc2)CC(C)O1 (stereo not shown) [Compound G42] | + + | + + + |  |  |  |
| COC(=O)c1cccc(COc2ccc(NC(=O)Nc3cc(C(C)(C)C)on3)cc2)c1 [Compound G7] | + + + | + + + + |  |  |  |
| CC(C)(C)c1cc(NC(=O)Nc2ccc(NC(=O)c3nccc4ccccc34)cc2)no1 [Compound N117] | + + + + | + + + + |  |  |  |
| Cc1ccc(-n2nc(C(C)(C)C)cc2NC(=O)Nc2ccc(OCCN3CCOC(CO)C3)c3ccccc23)cc1 (stereo not shown) [Compound G38] | + + + | + + + + |  |  |  |
| Cc1cc(NC(=O)[C@](C)(O)CSc2ccc(F)cc2)ccc1NC(=O)Nc1cc(C(C)(C)C)on1 [Compound N170] | + + + |  |  | + + + + |  |
| CC(C)(C)c1cc(NC(=O)Nc2ccc(NC(=O)c3cc(Cl)nnc3Cl)cc2)no1 [Compound N174] | + + and + + + | + + + + |  | + + + |  |
